Tests used:
ER [1] = details: ligand plus estrogen receptor plus Brg1 complex
Method: To reconstitute specific chromatin remodeling in vitro, one would co-incubate wild type or mutant ERE-containing nucleosomes with E2/ER or ICI/ER as in D2.2a. Equimolar Brg1, obtainable from Jena Biosciences (Dortmund, Germany), would be added and measurement would be made of the FRET loss that is specific to wt ERE-containing nucleosomes in a buffer of 12 mM HEPES, pH 7.9, 60 mM KCl, 15% glycerol, catalase, 10 mM DTT, 2 mM MgCl2, 4 mM ATP, 0.4% (w/v) glucose, 0.1 mg/ml glucose oxidase, and 0.02 mg/ml catalase. In the absence of measurable FRET loss, Flag-tagged BAF57, BAF155 and BAF170 could 1 be added in a 2:1 ratio, relative to Brg1, in keeping with observations in publication 69. Ligand-dependent measurement of FRET loss would be monitored.
The remodeling reaction is expected to be ATP-dependent. This would be tested by ATP deletion in relation to incubation conditions that had decreased FRET. Also, initial validation of reagents would be effected done through measurement of micrococcal nuclease sensitivity of the mononucleosome bound DNA.

ER [2] = details: recombinant protein system, equimolar estrogen, ICI, tamoxifen, cholesterol
Excerpt: Use of a recombinant protein system would be preferred to use of cell extracts in this context. A recombinant protein system would facilitate modulation of component stoichiometries.

Chain of ER (P03372 whole entry): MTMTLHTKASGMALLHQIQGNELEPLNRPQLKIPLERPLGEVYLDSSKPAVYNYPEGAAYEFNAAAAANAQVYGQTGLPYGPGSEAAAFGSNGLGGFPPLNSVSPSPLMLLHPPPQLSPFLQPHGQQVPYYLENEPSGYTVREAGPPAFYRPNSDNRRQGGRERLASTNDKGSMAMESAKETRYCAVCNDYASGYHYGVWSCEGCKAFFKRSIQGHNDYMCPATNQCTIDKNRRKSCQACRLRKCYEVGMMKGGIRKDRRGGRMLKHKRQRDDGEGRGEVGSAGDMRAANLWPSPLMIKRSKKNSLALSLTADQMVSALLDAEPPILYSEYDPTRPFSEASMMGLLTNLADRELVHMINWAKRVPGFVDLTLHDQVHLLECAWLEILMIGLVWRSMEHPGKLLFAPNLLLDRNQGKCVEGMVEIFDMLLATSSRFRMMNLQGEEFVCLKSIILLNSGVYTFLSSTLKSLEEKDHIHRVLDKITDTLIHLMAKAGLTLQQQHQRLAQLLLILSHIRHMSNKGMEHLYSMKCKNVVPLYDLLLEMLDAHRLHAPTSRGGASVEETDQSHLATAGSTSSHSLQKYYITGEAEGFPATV

Molecule: Vitamin D3
- loss of FRET signal (ER [1]): negative controls

Molecule: C[C@]12CC[C@@H]3c4ccc(O)cc4C[C@@H](CCCCCCCCC[S+]([O-])CCCC(F)(F)C(F)(F)F)[C@H]3[C@@H]1CC[C@@H]2O (stereo partly shown) [ICI, ICI182780]
- loss of FRET signal (ER [1]): negative controls

Molecule: CC(C)CCC[C@@H](C)[C@H]1CC[C@H]2[C@@H]3CC=C4C[C@@H](O)CC[C@]4(C)[C@H]3CC[C@]12C [cholesterol]
- distribution of ligand into sorted pools (ER [2]): would not be carried forward through the sort
- loss of FRET signal (ER [1]): negative controls

Reference: patent publication US20090062130A1, “NUCLEOSOME-BASED BIOSENSOR” (UNIVERSITY OF PITTSBURGH - OF THE COMMONWEALTH SYSTEM OF …, priority 2006, published 2009)
